This is an account of results in a melting point compilation (Tetko et al.; mined from patent text by program, amines drawn as free bases though some values may be those of a salt).

As for `Nc1ccc(S(=O)c2ccc(-c3ccc(Br)cc3)cc2)cc1[N+](=O)[O-]` (stereo not drawn), the melting point lay within 218 to 220 °C.
The same measure for `O=C(O)C1CCc2[nH]c3ccc(Cl)c(Cl)c3c2C1` (stereo not drawn): 244 to 245 °C; for `Cc1noc(NS(=O)(=O)c2ccccc2-c2ccc(-c3ncco3)cc2Cc2ncc(-c3ccccc3)o2)c1C`: 120 to 128 °C; for `COC(=O)C1=C(C)NC(C)=C(C(=O)N2CCC3(CC2)CC(=O)N(OC)C3=O)C1c1cccc([N+](=O)[O-])c1` (stereo not drawn): 228 to 230 °C.
On to `CS(=O)(=O)c1ccc(C=Cc2cc(=O)cc(-c3ccccc3)o2)cc1`, for which the melting point was in the range of 239 to 241 °C.
The same measure for `N=c1[nH]c(=O)c2nc[nH]c2c(=O)[nH]1`: above 220 °C.
In the case of `CCN(CC)CCc1cccc(Nc2ncc3c(n2)N(c2cccc(C(N)=O)c2)C(=O)N(c2ccc(OC)cc2)C3C)c1` (stereo not drawn), the melting point fell in the range of 170 to 175 °C.
As for `CN1CCN(c2ncccc2OC2CCN(c3ccc(C4CCOCC4)cc3)C2=O)CC1` (stereo not drawn), the melting point fell in the range of 219 to 248 °C.
Compound `CC(C)(C)NS(=O)(=O)c1cc(C(=O)O)ccc1C(=O)O` displayed a melting point of 210 to 213 °C.
Take `Cc1cc(OC(=O)c2ccccc2)c2ccccc2c1OCc1ccccc1`: the melting point was in the range of 179 to 180 °C.
Consider `Cc1oc(-c2ccccc2)nc1COc1ccc(Cn2cc(C(=O)O)c(C(C)C)n2)cc1`, for which the melting point lay in the range of 194 to 195 °C.
The compound `CC(C)NCC(=O)N1c2ccccc2N(C)S(=O)(=O)c2ccccc21` returned a melting point of 115 to 117 °C.
As for `COc1nc2cc(Cl)ccc2n2cnnc12`, the melting point fell in the range of 250 to 252 °C.
`CC1(C)Oc2ccc(C#N)cc2C(Oc2ccc(O)nn2)C1(C)O` (stereo not drawn) displayed a melting point of 131 to 134 °C.
`CCN1CCc2ccc(Nc3ncc(Cl)c(N[C@@H]4CCCC[C@H]4NC(=O)C(F)(F)F)n3)cc2CC1` displayed a melting point of 165 °C.
The same measure for `Nc1c(-c2ccc(-c3ccccc3F)cc2)nc2ccc(F)cc2c1C(=O)O`: 248 to 250 °C; for `O=C(c1ccc(Cl)cc1)c1cc[nH]c1`: 118 to 120 °C.
In the case of `NCCCCCCCNC(=O)OCc1ccccc1`, the melting point lay in the range of 78 to 80 °C.
Regarding `O=C1CN2CCOC2(c2ccccc2F)c2cc(I)ccc2N1CCO` (stereo not drawn), the melting point lay in the range of 160 to 165 °C.
The result for `COC(=O)CCN1C[C@H]2Cc3ccccc3[C@H](c3ccccc3)[C@H]2C1` (racemic) reads 75 to 76 °C; that for `COc1cc(-n2ccc(C(F)(F)F)cc2=O)c(F)cc1C#N`, 194 to 196 °C; that for `O=C1NC(=O)C(Cc2ccc3c(c2)CCCN3Cc2ccccc2)S1` (stereo not drawn), 155 to 158 °C.
On to `CCCCn1c(CCCCN(C(N)=O)c2ccccc2)nc2c(N)nc3ccccc3c21`, for which the melting point was in the range of 222 to 225 °C.
For the compound `O=C(O)CS(=O)(=O)Nc1ccc(F)cc1F`, the melting point was 110 to 112 °C.
`CN(C(=O)OC(C)(C)C)c1sc(-c2cccnc2)nc1Br` came in with a melting point of 88 to 91 °C.
In the case of `O=c1cc(CN2CCCC2)[nH]c(=O)[nH]1`, the melting point was 176 to 178 °C.
`CCCn1nc2c(N)nc3ccccc3c2c1CC(C)(C)NC(=O)c1ccc(F)c(F)c1`: the melting point was 165 to 166 °C.
With `Cc1ccccc1/C=C/c1c(C(C)C)nc(C(C)C)c(CO)c1-c1ccc(F)cc1`, the melting point was in the range of 108 to 111 °C.
As to `CSc1nc(CC2CCN(c3ccc(C(C)(C)C)cc3)CC2)nc(C(=O)NCC(=O)O)c1O`, the melting point lay in the range of 135 to 136 °C.
Take `O=C(O)c1cn(CCF)c2cc(Cl)c(F)cc2c1=O`: the melting point is 262 to 264 °C.
`COc1ccc(OCc2ccccc2)c(C(=O)OCc2ccccc2)c1` returned a melting point of 93 to 94.5 °C.
Take `O=C(NCC1CCCCC1)c1c(Cl)ccc2nc(N3CCC(c4nnn[nH]4)CC3)ccc12`: the melting point was in the range of 252 to 255 °C.
`COC(=O)C(=O)c1cn(C)c2cc(-c3ccc(C(F)(F)F)cc3)ccc12` came in with a melting point of 199 to 200 °C.
Turning to `ClCCCCOc1ccc2ccccc2c1`, the melting point came out at 112 °C.
Take `CS(=O)(=O)c1cccc(NC(=O)c2cnn3c(C(F)(F)F)cc(-c4ccc(OC(F)(F)F)cc4)nc23)c1`: the melting point came to 245 °C.
The same measure for `O=C(C1CCN(c2c(Cl)cncc2Cl)CC1)N1CCOCC1`: 172 to 174 °C.
Consider `CCCCC[C@H]1CC[C@H](c2ccc(CC(=O)OCc3ccc(C#N)cc3)cc2)CC1`, for which the melting point worked out at 85 °C.
Consider `COC(=O)C(O)C(C)(Oc1ccc(Br)cc1)c1ccccc1` (stereo not drawn), for which the melting point is 133 to 135 °C.
`Oc1ccccc1-c1ccc[nH]1` displayed a melting point of 100 to 101 °C.
`CCn1c(=S)sc2c(=N)n(NC(N)=O)cnc21` had a melting point of 212 °C.
In turn, `CCCCC[C@H]1CC[C@H](CCCCc2ccc(C#N)cc2)CC1` displayed a melting point of 51 °C.
On to `CN(C)C1(c2ccccc2)CCC2(OCCc3c2[nH]c2ccccc32)C(Sc2ccccc2)C1` (stereo not drawn), for which the melting point lay in the range of 228 to 233 °C.
The result for `CSC1(C)C(=O)Nc2ccc(C3=NNC(=O)SC3C)cc21` (stereo not drawn) reads 250 °C.
Take `NC(=O)c1ncn(Cc2ccccc2)c1NC(=S)NC(=O)c1ccccc1`: the melting point was in the range of 181 to 182 °C.
In the case of `NC(=O)c1cccc(CN2C(=O)C3(COc4cc5c(cc43)OCCO5)c3ccccc32)c1` (stereo not drawn), the melting point fell in the range of 130 to 135 °C.
Regarding `CC(=O)n1cc(-c2ccccc2)nc1-c1ccccc1C`, the melting point lay in the range of 102 to 104 °C.
`Oc1ccc(-c2ncc3ncc(-c4ccco4)cc3n2)cc1`: the melting point lay within 261 to 263 °C.
As for `CC(=O)N1CCC(c2nn(-c3ccccc3)c3cc(F)ccc23)CC1`, the melting point fell in the range of 126 to 128 °C.
As to `O=C(O)c1cc(Cl)ccc1OC1CCOC1=O` (stereo not drawn), the melting point was in the range of 159 to 160 °C.
The result for `COc1cc(OC)c2c(=O)[nH]c(-c3ccc(N(CCO)CCO)cc3)nc2n1` reads 277 to 279 °C.
The same measure for `CCSc1ccc2c(c1)CCN2C(=O)Nc1cccnc1`: 150 to 151 °C.
Consider `Nc1ccc(CN2C(=O)[C@H]3CCC[C@H]3Nc3ccccc32)cc1` (relative stereo), for which the melting point is 149 to 150 °C.
In turn, `O=C(O)c1ccccc1COc1ccccc1Br` registered a melting point of 175 to 177 °C.
In turn, `O=c1[nH]nc(-c2cc(C(F)(F)F)cc(C(F)(F)F)c2)n1-c1cc(Cl)ccc1O` yielded a melting point of 275 to 278 °C.
The compound `O=C(CC(=O)C(F)(F)F)Nc1cc(-c2ccsc2)n[nH]1` came in with a melting point of 251 to 253 °C.
The result for `COc1ccccc1-c1nc(-c2cccnc2)c(C)[nH]1` reads 198 to 200 °C; that for `Cc1ccc(-c2ncc(-c3cccs3)s2)cc1`, 85.5 to 86.5 °C; that for `OC(CNC1CC1)c1ccc(Br)cc1` (stereo not drawn), 105 to 107 °C.
As for `CC(C)n1c(=Nc2ccccc2)sc2ncccc2c1=O`, the melting point was 85 to 86 °C.
The same measure for `O=C(O)CCCCCCCn1cnc(-c2ccc(O)cc2)c1-c1ccc(O)cc1`: 203 to 204 °C; for `O=C(O)C1CC(C(=O)O)C(C(=O)O)C1C(=O)O` (stereo not drawn): 186 °C.
The same measure for `COc1cc(Nc2c(C#N)cnc3cc4cc(OC)c(OCCN5CCOCC5)cc4cc23)c(Cl)cc1C`: 240 to 241 °C.
With `Cn1c(=O)c2c(ncn2CCCCCCl)n(C)c1=O`, the melting point was in the range of 78 to 80 °C.
With `N#Cc1ccc(OCC(F)(F)F)c(F)c1`, the melting point lay in the range of 62 to 67 °C.
For `O=C(O)c1ccc(=O)n(-c2ccccc2)c1`, the melting point fell in the range of 115 to 120 °C.
`O=C(O)N1CCN2c3sc4c(c3CN(c3ccccc3Cl)CC12)CC=C4` (stereo not drawn) showed a melting point of 315 °C.
The same measure for `CCCCCCCCCCC(C)(C)C(=O)Nc1c(C)c(N)c(C)c2c1OC(C)(C)C2`: 125 °C; for `CC(C)C1(C)N=C(c2cc3c(nc2C(=O)O)COC3)NC1=O` (stereo not drawn): 115 to 118 °C.
In the case of `OC(c1ccccn1)c1cc(F)ccc1F` (stereo not drawn), the melting point is 65 to 66 °C.
The same measure for `Cc1cc2c(s1)Nc1ccccc1N=C2N1CCN[C@@H](COc2ccccc2)C1`: 64 to 81 °C; for `CC(C)(C)COc1cccc(C[C@@H](NC(=O)c2ccc(F)c3ccccc23)[C@@H](O)c2cccc(Cl)c2)c1` (racemic): 165 to 166 °C.
In turn, `Oc1ccc(CCN2CCC(Cc3nc4c(O)ncnc4n3Cc3ccc(F)cc3)CC2)cc1` had a melting point of 216 °C.
Consider `CC(C)C(O)(C=Cc1ccc([N+](=O)[O-])cc1)CC(=O)OCc1ccccc1` (racemic), for which the melting point is 64 to 65 °C.
On to `Cn1c(C(F)(F)F)cc(=O)n(-c2ccc3snc(CCl)c3c2)c1=O`, for which the melting point was in the range of 201 to 203 °C.
`Cc1ccc(-n2ccc(C=O)c2)cc1` returned a melting point of 71 to 72 °C.
The result for `CC(C)c1nc(C(N)(C(F)(F)F)C(F)(F)F)[nH]c1-c1ccc(S(C)(=O)=O)cc1` reads 155 to 157 °C; that for `CC1(C)CON(Cc2ccc(N)cc2Br)C1=O`, 109 to 111 °C.
Regarding `Cc1cccc(NC(=O)NC2N=C(c3ccccc3F)c3ccccc3N(Cc3ccc4ccccc4n3)C2=O)c1` (racemic), the melting point fell in the range of 224 to 225 °C.
With `Cc1ccc(N(c2ccccc2)c2ccc3c4c(cccc24)CC3)cc1`, the melting point was 147 to 148 °C.
The result for `Cc1ccc(S(=O)(=O)Oc2cc(Cl)c(C=O)c(Cl)c2)cc1` reads 77 to 80 °C; that for `N#CC1=C(C2=CCNCC2)Nc2n[nH]cc2C1c1cccc(C#N)c1Br` (stereo not drawn), 226 °C; that for `CC(=O)N1c2ccccc2CC1c1cc(Cl)ccc1NC(=O)C(C)(C)C` (stereo not drawn), 131 to 134 °C.
For `CCCOc1ccccc1-c1ccc(C(N)=O)c(=O)[nH]1`, the melting point was in the range of 176 to 178 °C.
On to `COc1cc2c(cc1OC)CN(C(=O)Cc1ccc(-c3ccccc3)cc1)CC2`, for which the melting point lay within 109 to 111 °C.
Turning to `Cn1nc(-c2ncc(Cl)cc2F)cc1OCC(F)(F)F`, the melting point was 72 to 73 °C.
Take `COc1ccc(CNc2nc(OCc3ccccn3)ncc2C(=O)O)cc1Cl`: the melting point fell in the range of 201 to 203 °C.
In turn, `COc1ccc(C2c3ccccc3C(c3ccc4c(c3)OCO4)C2c2nnn[nH]2)cc1` (stereo not drawn) returned a melting point of 155 to 157 °C.
Regarding `CCc1oc2ccccc2c1C(=O)c1ccc(OCC(=O)O)cc1`, the melting point lay within 172 to 175 °C.
